Consider 5 molecules from patent publication EP4810492A1, “NMT INHIBITOR, PREPARATION METHOD THEREFOR, AND USE THEREOF” (Nanjing Synnocare Pharmaceutical Technology Co., Ltd., priority 2023, dated 2025).

Molecules are shown by their SMILES.

For one series, the system named is MV-4-11 cells. In words: Anti-proliferative activity against MV-4-11 cells (cell viability chemiluminescence). The format is cell-based. Conditions: Homo sapiens, MV4-11, 72 h, MV-4-11 human monocytic leukemia cells, three days of exposure. As for the experimental part: This study utilized a cell proliferation assay to analyze the cytotoxicity of MV-4-11 human monocytic leukemia cells after three days of exposure to NMT1 inhibitors. The MV-4-11 cell line was purchased from Nanjing Cobuilder Biotechnology Co., Ltd., and cultured in IMDM medium (Viva cell) in an incubator (Thermo) at 37 °C with 5% CO2. In this experiment, NMT1 inhibitors were dissolved in DMSO to obtain 600 µM stock solutions. Dose-response solutions were prepared with a top endpoint compound concentration of 3 µM, followed by three-fold serial dilutions in DMSO, totaling eight data points. The final concentration of DMSO was 0.5%.
MV-4-11 cells were seeded into a white 96-well plate, 80 µL of cell suspension per well, containing 6000 MV-4-11 cells. The cell plate was placed in the CO2 incubator for overnight culture. Then, 20 µL of NMT1 inhibitor solutions at different concentrations were added to the wells. The 96-well plate was placed back into the incubator for three days. Another cell plate was prepared, and the signal was read on the day of drug addition to serve as the maximum value (Max value in the equation below) for data analysis. To this cell plate, 25 µL of cell viability chemiluminescence detection reagent was added per well, followed by incubation at room temperature for 10 minutes to stabilize the luminescence signal. A multi-label analyzer was used for reading.
The raw data were converted into inhibition rates using the equation (Sample - Min) / (Max - Min) * 100%. The IC50 values were then determined by fitting a four-parameter curve (using the "log(inhibitor) vs. response - Variable slope" model in GraphPad Prism). Min: wells treated with 0.5% DMSO; Max: Day 0 wells. Table 1 provides the inhibitory activity of the compounds of the invention on MV-4-11 cell proliferation. Table 1: Compound Inhibitory Activity against NMT1 Enzyme (IC50) and Anti-proliferative Activity against MV-4-11 Cell line (IC50)
For `Cc1c(NS(=O)(=O)c2c(Cl)cc(-c3ccc4sc5c(c4c3)CNCC5)cc2Cl)c(CC2CC2)nn1C` [Compound 21], 26.9 nM corresponded to half-maximal inhibition (IC50).
Regarding `Cc1c(NS(=O)(=O)c2c(Cl)cc(N3CCc4sc5c(c4C3)CNCC5)cc2Cl)c(CC(F)(F)F)nn1C` [Compound B35], the IC50 (as a rule, the concentration that inhibits the measured activity by half) was 7.48 nM.

The series is the same for the next values; noted with them: MV4-11, 72 h; MV-4-11 human monocytic leukemia cells, three days of exposure.
Molecule `Cc1c(NS(=O)(=O)c2ccc(-c3ccc4oc5c(c4c3)CNCC5)cc2)c(CCF)nn1C` [Compound B53] showed a half-maximal inhibitory concentration (IC50) of 27.2 nM.
The same measure, in the same setting: the figure for `Cc1c(NS(=O)(=O)c2ccc(-c3ccc4sc5c(c4c3)CNCC5)cc2Cl)c(CC(F)F)nn1C` [Compound B59] is 5.3 nM; for `Cc1c(NS(=O)(=O)c2ccc(-c3ccc4oc5c(c4c3)CNCC5)cc2)c(CC(F)F)nn1C` [Compound B64] it is 30.2 nM.

Tested on in the next series: not listed separately
The series is described as follows: Plasma concentrations in mice following oral administration. As to conditions: ICR, mouse, po, 10 mg/kg.
Excerpt: This study evaluated the plasma concentrations of the compounds of the present invention in mice. ICR mice were procured from JOINN Laboratories (Suzhou) Co., Ltd. At the initiation of dosing, the animals were 6-8 weeks old and weighed 18-25 g. Mice were housed in transparent plastic cages (400 mm*240 mm*200 mm). The animal facility maintained a 12-hour light/12-hour dark cycle (lights on 07:00-19:00) using fluorescent lighting. The dark period may be intermittently interrupted as required for study-related activities. Ambient temperature and relative humidity were controlled within 20-26 °C and 40-70%, respectively. Animals were fed certified rodent chow and provided with drinking water filtered and sterilized through an ultrapure water system. All animals had ad libitum access to water throughout the study. Animals were fasted for at least 12 hours prior to dosing, and food was restored 4 hours post-dosing.
Prior to dosing, body weights were recorded, and healthy animals with similar weights were selected and randomly assigned to groups (n = 3 per group) based on body weight. The compounds were formulated in a 0.5% aqueous carboxymethyl cellulose (CMC) solution and administered orally at a single dose of 10 mg/kg. Blood samples (≥0.2 mL) were collected via venipuncture at 1 h and 4 h post-dose into EDTA-K2 anticoagulant tubes. Tubes were gently inverted to mix, immediately placed in an ice-water bath, and rapidly centrifuged at 4,000 rpm for 10 min at 4 °C to separate plasma. Plasma was stored at -70 °C until analysis.
Calibration curve and QC plasma samples: Working solutions for the calibration curve and QC samples were prepared using 80% methanol in water (Thermo Fisher) as the diluent. To prepare plasma calibration standards and QC samples, 5 µL of each working solution was added to 45 µL of blank plasma and mixed. To the prepared calibration and QC samples, 300 µL of internal standard solution (tolbutamide at 8 µg/mL in acetonitrile, Thermo Fisher) was added. […] The supernatant was collected and analyzed by liquid chromatography-tandem mass spectrometry (LC-MS/MS; AB Sciex API 5000).
Plasma sample pretreatment: After thawing at room temperature, 50 µL of each plasma sample was mixed with 300 µL of the internal standard solution (tolbutamide at 8 µg/mL in acetonitrile, Thermo Fisher). […] The supernatant was collected and analyzed by LC-MS/MS (AB Sciex API 5000).
Raw chromatograms, concentrations, and accuracy data were generated using Analyst software version 1.6.3.
In turn, `Cc1c(NS(=O)(=O)c2ccc(-c3ccc4oc5c(c4c3)CNCC5)cc2)c(CCF)nn1C` [Compound B53] showed a concentration at 1 h of 2480 ± 626 ng/mL, a concentration at 4 h of 1020 ± 361 ng/mL and a concentration at 8 h of 399 ± 264 ng/mL.
In turn, `Cc1c(NS(=O)(=O)c2ccc(-c3ccc4sc5c(c4c3)CNCC5)cc2Cl)c(CC(F)F)nn1C` [Compound B59] returned a concentration at 1 h of 1870 ± 389 ng/mL, a concentration at 4 h of 846 ± 698 ng/mL and a concentration at 8 h of 149 ± 114 ng/mL.
For `Cc1c(NS(=O)(=O)c2ccc(-c3ccc4oc5c(c4c3)CNCC5)cc2)c(CC(F)F)nn1C` [Compound B64], the concentration at 1 h stood at 1660 ± 366 ng/mL, the concentration at 4 h was 795 ± 127 ng/mL and the concentration at 8 h amounted to 260 ± 63 ng/mL.

A further series concerns the target T1, NMT1 enzyme (Homo sapiens, UniProt P30419).
T1 sequence (P30419 1-496): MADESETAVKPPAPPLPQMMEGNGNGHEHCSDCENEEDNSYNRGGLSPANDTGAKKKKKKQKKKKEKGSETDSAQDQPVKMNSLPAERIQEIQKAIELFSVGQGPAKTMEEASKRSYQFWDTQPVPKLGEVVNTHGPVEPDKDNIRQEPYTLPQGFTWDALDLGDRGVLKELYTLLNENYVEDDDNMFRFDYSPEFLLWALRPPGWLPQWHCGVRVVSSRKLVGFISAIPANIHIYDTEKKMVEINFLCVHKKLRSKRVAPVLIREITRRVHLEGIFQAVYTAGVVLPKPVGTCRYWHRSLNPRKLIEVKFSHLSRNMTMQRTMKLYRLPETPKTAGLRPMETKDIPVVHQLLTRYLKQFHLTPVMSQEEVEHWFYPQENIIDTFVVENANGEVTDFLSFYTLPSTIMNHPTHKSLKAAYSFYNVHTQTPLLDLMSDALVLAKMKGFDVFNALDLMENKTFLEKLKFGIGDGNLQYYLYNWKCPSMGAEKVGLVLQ
In words: Inhibitory activity on NMT1 enzyme catalysis (fluorescence intensity assay). The format is biochemical.
Details: not given
As for the experimental part:
This study evaluated the ability of the compounds of the invention to inhibit NMT1 catalytic activity in vitro. […] The final concentration of the NMT1 enzyme was 6 nM, the final concentration of CPM (Reactive thiol fluorescence probe, Invitrogen, D346) was 1 µM, the final concentration of HSPP60 SRC was 20 µM, and the final concentration of DMSO was 0.5%.
Compounds were dissolved in DMSO to obtain 10 mM stock solutions. Dose-response solutions were prepared with a top endpoint compound concentration of 3 mM, followed by three-fold serial dilutions in DMSO, totaling ten data points. […] Then, 2.5 µL of the NMT1 enzyme working solution was added to the 384-well assay plate, followed by incubation at 25 °C for 10 minutes. Subsequently, 5 µL of the CPM and myristoyl-CoA working solution was added, the plate was centrifuged at 1000 rpm for 1 minute, and then 2.5 µL of the HSPP60 SRC working solution was added to initiate the reaction. The reaction was incubated at 25 °C for 45 minutes.
The IC50 curve of the compounds was fitted using the software XLfit 5.5.0 according to the nonlinear regression equation.
`Cc1c(NS(=O)(=O)c2c(Cl)cc(-c3ccc4sc5c(c4c3)CNCC5)cc2Cl)c(CC2CC2)nn1C` [Compound 21] came in with a concentration for half-maximal inhibition (IC50) of 3.58 nM.
The same measure, in the same setting: the figure for `Cc1c(NS(=O)(=O)c2c(Cl)cc(N3CCc4sc5c(c4C3)CNCC5)cc2Cl)c(CC(F)(F)F)nn1C` [Compound B35] is 1.97 nM.

The same series, now with this note: 6 nM NMT1 enzyme, 1.25 µM myristoyl-CoA, 20 µM HSPP60 SRC peptide, 45 minutes at 25 °C; read-out: NMT1 (IC50).
Regarding `Cc1c(NS(=O)(=O)c2ccc(-c3ccc4oc5c(c4c3)CNCC5)cc2)c(CCF)nn1C` [Compound B53], the IC50 was 4.02 nM.
Regarding `Cc1c(NS(=O)(=O)c2ccc(-c3ccc4sc5c(c4c3)CNCC5)cc2Cl)c(CC(F)F)nn1C` [Compound B59], the IC50 worked out at 1.93 nM.
The same measure, in the same setting: the same measure for `Cc1c(NS(=O)(=O)c2ccc(-c3ccc4oc5c(c4c3)CNCC5)cc2)c(CC(F)F)nn1C` [Compound B64]: 4.08 nM.

Tested on in a further series: not given
Experiment: not given
As to conditions: mouse, in vivo, po, 10 mg/kg.
As to `Cc1c(NS(=O)(=O)c2c(Cl)cc(-c3ccc4sc5c(c4c3)CNCC5)cc2Cl)c(CC2CC2)nn1C` [Compound 21], the “1 h Concentration” value was found to be 1900 ± 199 ng/mL, the “4 h Concentration” value is 1114 ± 196 ng/mL and the “8 h Concentration” value is on record as 679 ± 220 ng/mL.
For `Cc1c(NS(=O)(=O)c2c(Cl)cc(N3CCc4sc5c(c4C3)CNCC5)cc2Cl)c(CC(F)(F)F)nn1C` [Compound B35], the “1 h Concentration” value stood at 2267 ± 1084 ng/mL, the “4 h Concentration” value is 1270 ± 384 ng/mL and the “8 h Concentration” value is recorded as 684 ± 239 ng/mL.
